Like-named read-outs stand apart in the source and are kept apart here. Marks after values point to notes of the source that are not given here.
How the values were obtained:
[1] = tested on: adult zebra mussels
Procedure: Laboratory research was carried out to investigate potash for mussel control by itself or in combination with oxidizing agents such as chlorine or hydrogen peroxide.
Experiments were carried out with adult zebra mussels using potassium chloride (KCl) alone, as well as chloramine, hydrogen peroxide and combinations thereof to determine the estimated time to 95% mortality. Experimentation was carried out at 100 mg/L K^+ and test temperatures ranged from 2 to 30° C.

[2] = tested on: young adult (<1.5 cm) zebra mussels; experiment: Flow-through contact chamber mortality study, adult mussels; type: in vivo; conditions: for Final mortality of adult mussels: end of the 52 day trial
Procedure: (§1) Mortality studies using flow through contact chambers were performed with young adult (<1.5 cm) zebra mussels and naturally occurring veliger populations at a small tributary of a canal located in southern Ontario, Canada. Water temperatures ranged between 20 and 25° C. throughout the trial.
Adult zebra mussels were exposed to three concentrations of K^+ (40 mg/l, 30 mg/l, and 20 mg/l) as well as a control chamber. Each concentration as well as the control was replicated three times. The nature of the design allowed for simultaneous trials with adults and veligers. Sixty adult mussels (six groups of ten) were exposed in each replicate test concentration and control tank. Mussels were contained in PVC mesh baskets which allowed free flow of water while maintaining the mussels in discrete groups of ten.
(§2) A concentrated potassium solution was metered into each replicate test line prior to its entering the test tanks from a pre-mixed batch tank. Potassium source was commercial grade potash which was 60% potassium by weight. The potassium concentration was controlled through differential metering rates. Flow-through trials were carried out for 52 days at which point final mortality in adults was recorded.

[3] = tested on: naturally occurring veliger larvae; experiment: Larval settlement on PVC settling plates in flow-through tanks; type: in vivo, zebra mussel (Dreissena polymorpha); conditions: 52 day trial period; for Larval (veliger) settlement: 30 mg/l K+
Procedure: as §1
In addition to adult trials, six PVC settling plates were installed in one replicate tank at each test concentration as well as the control. The presence of naturally occurring veliger larvae in the water source provided the opportunity of determining settling rates at each test concentration.
as §2

[4] = tested on: Ceriodaphnia dubia; experiment: KCl toxicity test on non-target species (EPS protocol); type: in vivo
Procedure: (§3) Studies were performed to investigate the environmental effects on non-target species of treatment with concentrations of potassium effective for controlling zebra mussels. As set out below, potassium when discharged at concentrations of 100 mg/l or less is an environmentally benign method of zebra mussel control. This is an important advantage over other methods of controlling zebra mussels such as by the use of chlorine or other oxidizing agents which can result in significant non-target species toxicity.
(§4) A stock solution at 1000 mg/l KCl was used to set all tests. Dilutions were made from these stocks. Test methods were as dictated by EPS protocols for each test organism.

[5] = tested on: Daphnia magna; experiment: as above; type: in vivo; conditions: acute test
Procedure: as §3, §4

[6] = tested on: Fathead minnow; experiment: as above; type: in vivo
Procedure: as §3, §4

[7] = tested on: Rainbow trout; experiment: as above; type: in vivo; conditions: acute test
Procedure: as §3, §4

OO [H2O2, hydrogen peroxide]
Estimated time (hours) to 95% mortality ([1]; H2O2 5 mg/L, 12-14 °C, extrapolated value): 1714* hours
Estimated time (hours) to 95% mortality ([1]; H2O2 5 mg/L, 20-21 °C, extrapolated value): 455* hours
Estimated time (hours) to 95% mortality ([1]; H2O2 5 mg/L, 22-24 °C, extrapolated value): 294* hours
Estimated time (hours) to 95% mortality ([1]; H2O2 10 mg/L, 12-14 °C): 227 h
Estimated time (hours) to 95% mortality ([1]; H2O2 10 mg/L, 20-21 °C): 36 h
Estimated time (hours) to 95% mortality ([1]; H2O2 10 mg/L, 22-24 °C): 21 h

[K+] [potassium cation]
Zebra mussel mortality ([1]; 100 mg/L potassium, in 48 hours, water temperatures above 15 °C): 100%
Estimated time (hours) to 95% mortality ([1]; KCl at 100 mg/L K+, 14-26 °C): 22 h
Final mortality of adult mussels ([2]; 20 mg/l K+, water 20-25 °C): 73%
Final mortality of adult mussels ([2]; 30 mg/l K+, water 20-25 °C): 91%
Mortality of a target population ([2]; 40 mg/L potassium, within two weeks, water temperatures above 15 °C): up to 100%
Time to complete mortality of adult mussels ([2]; 40 mg/l K+, flow-through, water 20-25 °C): ≤ 25 days
Mortality of zebra mussels over time (in words) ([2]; 40 mg/l potassium): significant mortality within two weeks and complete mortality in this trial in just over three weeks
Larval (veliger) settlement [3]: No larval settlement was detected
Larval (veliger) settlement ([3]; listed as Potassium): effective at preventing settlement of veligers
Larval settlement ([3]; 40 mg/l K+): No larval settlement was detected

NCl [chloramine]
Estimated time (hours) to 95% mortality ([1]; chloramine 0.5 mg/L, 10-12 °C, extrapolated value): 480* hours
Estimated time (hours) to 95% mortality ([1]; chloramine 0.5 mg/L, 14-26 °C, extrapolated value): 97* hours
Estimated time (hours) to 95% mortality ([1]; chloramine 1.0 mg/L, 10-12 °C): 258 h
Estimated time (hours) to 95% mortality ([1]; chloramine 1.0 mg/L, 13-17 °C): 209 h
Estimated time (hours) to 95% mortality ([1]; chloramine 1.0 mg/L, 14-26 °C): 60 h
Estimated time (hours) to 95% mortality ([1]; chloramine 2.0 mg/L, 13-17 °C): 87 h

[Cl-].[K+] [KCl, potassium chloride]
Estimated time (hours) to 95% mortality ([1]; KCl at 100 mg/L K+, 10-12 °C, extrapolated value): 283* hours
Estimated time (hours) to 95% mortality ([1]; KCl at 100 mg/L K+, 12-14 °C): 165 h
Estimated time (hours) to 95% mortality ([1]; KCl at 100 mg/L K+, 13-17 °C): 113 h
Estimated time (hours) to 95% mortality ([1]; KCl at 100 mg/L K+, 14-26 °C): 22 h
Estimated time (hours) to 95% mortality ([1]; KCl at 100 mg/L K+, 20-21 °C): 56 h
Estimated time (hours) to 95% mortality ([1]; KCl at 100 mg/L K+, 22-24 °C, extrapolated value): 33* hours
IC25 [4]: 189.3 µg/mL
IC50 [4]: 256.8 µg/mL
LC50 [4]: 219.6 µg/mL
GROWTH/REPRODUCTIVE DATA LOEC ([4]; NED = no effect detected): NED
GROWTH/REPRODUCTIVE DATA NOEC ([4]; NED = no effect detected): NED
GROWTH/REPRODUCTIVE DATA TEC ([4]; NED = no effect detected): NED
SURVIVAL DATA LOEC ([4]; chronic test): 385 mg/L
SURVIVAL DATA NOEC ([4]; chronic test): 193 mg/L
SURVIVAL DATA TEC (threshold effect concentration) ([4]; chronic test): 272.6 mg/L
LC50 [5]: 188.8 µg/mL
IC25 [6]: 736.2 µg/mL
IC50 [6]: 892.5 µg/mL
LC50 [6]: 512.7 µg/mL
GROWTH/REPRODUCTIVE DATA LOEC ([6]; NED = no effect detected): NED
GROWTH/REPRODUCTIVE DATA NOEC ([6]; NED = no effect detected): NED
GROWTH/REPRODUCTIVE DATA TEC ([6]; NED = no effect detected): NED
SURVIVAL DATA LOEC ([6]; chronic test): 603 mg/L
SURVIVAL DATA NOEC ([6]; chronic test): 302 mg/L
SURVIVAL DATA TEC (threshold effect concentration) ([6]; chronic test): 426.7 mg/L
LC50 [7]: 1248.4 µg/mL
